Measurements: ChEMBL document CHEMBL2074522, “Role of P-glycoprotein-mediated secretion in absorptive drug permeability: An approach using passive membrane permeability and affinity to P-glycoprotein” (J Pharm Sci, 1999)

Biological target: ATP-dependent translocase ABCB1 (Homo sapiens, UniProt P08183)
Assay: TP_TRANSPORTER: inhibition of Verapamil binding in membranes from Vinblastine-induced Caco-2 cells
Type: functional, cell membranes, Membrane

Sequence of ATP-dependent translocase ABCB1 (P08183 whole entry): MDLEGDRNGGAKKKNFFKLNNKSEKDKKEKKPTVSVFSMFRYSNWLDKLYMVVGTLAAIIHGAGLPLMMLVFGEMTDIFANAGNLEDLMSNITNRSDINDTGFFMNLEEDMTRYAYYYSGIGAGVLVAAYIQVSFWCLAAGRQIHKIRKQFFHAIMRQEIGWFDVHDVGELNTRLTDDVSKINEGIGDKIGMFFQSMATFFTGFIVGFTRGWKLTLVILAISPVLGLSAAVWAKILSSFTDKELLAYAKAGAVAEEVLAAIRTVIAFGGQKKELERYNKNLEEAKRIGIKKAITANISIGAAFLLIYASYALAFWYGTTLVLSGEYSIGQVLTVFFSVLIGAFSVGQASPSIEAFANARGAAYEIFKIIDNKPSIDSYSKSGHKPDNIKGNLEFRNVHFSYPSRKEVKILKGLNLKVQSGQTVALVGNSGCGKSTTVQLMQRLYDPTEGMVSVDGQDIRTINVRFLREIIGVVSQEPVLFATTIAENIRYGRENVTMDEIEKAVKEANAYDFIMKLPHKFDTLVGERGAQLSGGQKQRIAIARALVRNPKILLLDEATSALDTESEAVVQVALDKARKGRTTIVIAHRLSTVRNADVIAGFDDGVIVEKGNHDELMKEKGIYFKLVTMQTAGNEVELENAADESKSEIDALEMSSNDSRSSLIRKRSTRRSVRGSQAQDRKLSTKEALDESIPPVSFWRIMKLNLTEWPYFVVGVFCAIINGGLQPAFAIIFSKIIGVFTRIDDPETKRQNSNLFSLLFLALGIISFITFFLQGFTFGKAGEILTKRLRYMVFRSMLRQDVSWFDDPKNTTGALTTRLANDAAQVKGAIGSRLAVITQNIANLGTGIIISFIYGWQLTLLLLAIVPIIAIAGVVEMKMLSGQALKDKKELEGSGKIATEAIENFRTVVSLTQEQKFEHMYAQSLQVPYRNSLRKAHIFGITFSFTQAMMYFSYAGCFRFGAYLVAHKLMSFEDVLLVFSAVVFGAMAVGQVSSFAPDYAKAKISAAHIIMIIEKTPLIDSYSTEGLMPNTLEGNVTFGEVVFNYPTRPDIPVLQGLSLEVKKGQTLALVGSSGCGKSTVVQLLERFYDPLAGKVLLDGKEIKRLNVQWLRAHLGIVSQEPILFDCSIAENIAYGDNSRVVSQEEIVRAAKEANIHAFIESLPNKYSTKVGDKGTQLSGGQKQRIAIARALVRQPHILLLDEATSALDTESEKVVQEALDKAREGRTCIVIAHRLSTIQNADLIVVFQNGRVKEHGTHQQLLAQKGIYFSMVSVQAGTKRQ

- Ki (read-out: Ki1): 5.5 µM
- Ki (read-out: Ki2): 3200 µM
Compound: CC(C)NCC(O)COc1ccc(CCNC(=O)NC(C)C)cc1 (configuration not stated) [PAFENOLOL]
